Data reported in ChEMBL document CHEMBL1201862, “PubChem BioAssay data set” (2004).
Where “and” joins values, the source holds several entries; their conditions need not be identical. Equal values may be shown once.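 The compound was tested at five concentrations on cells cultured in 96-well plates, with a 48-hour exposure period. Abbreviation: GI50, concentration required for 50% inhibition of growth.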 Calls of active or inactive are those of the source. No stated cut-off is given here; in the data, active = GI50 up to about 1.1 µM and inactive = higher.

How the values were obtained:
Test in all cases: NCI tumour cell line growth inhibition, 48 h
A549 = system: A549
CAKI-1 = system: CAKI-1
COLO 205 = system: COLO 205
DU-145 = system: DU-145
HOP-62 = system: HOP-62
KM12 = system: KM12
LOX IMVI = system: LOX IMVI
M14 = system: M14
MDA-MB-231 = system: MDA-MB-231
Malme-3M = system: Malme-3M
NCI-H460 = system: NCI-H460
OVCAR-4 = system: OVCAR-4
SF-268 = system: SF-268
SK-MEL-5 = system: SK-MEL-5
SN12C = system: SN12C
SR = system: SR
U-251 = system: U-251
UACC-62 = system: UACC-62
BT-549 = system: BT-549
SK-OV-3 = system: SK-OV-3

SMILES	GI50 (A549)	GI50 (CAKI-1)	GI50 (COLO 205)	GI50 (DU-145)	GI50 (HOP-62)	GI50 (KM12)	GI50 (LOX IMVI)	GI50 (M14)	GI50 (MDA-MB-231)	GI50 (Malme-3M)	GI50 (NCI-H460)	GI50 (OVCAR-4)	GI50 (SF-268)	GI50 (SK-MEL-5)	GI50 (SN12C)	GI50 (SR)	GI50 (U-251)	GI50 (UACC-62)	GI50 (BT-549)	GI50 (SK-OV-3)
COC(=O)[C@@H]1CN(C(=O)Cc2ccccc2)C(=O)N1	> 100 µM (inactive)	> 100 µM (inactive)	> 100 µM (inactive)	> 100 µM (inactive)	> 100 µM (inactive)	> 100 µM (inactive)	> 100 µM (inactive)	> 100 µM (inactive)	> 100 µM (inactive)	> 100 µM (inactive)	> 100 µM (inactive)	> 100 µM (inactive)	> 100 µM (inactive)	> 100 µM (inactive)	> 100 µM (inactive)	> 100 µM (inactive)	> 100 µM (inactive)	> 100 µM (inactive)		
O=C(/C=C/c1ccccc1)c1ccccn1	19.4 µM (inactive) and 32.6 µM (inactive)	26.2 µM (inactive) and 16.6 µM (inactive)	18.6 µM (inactive) and 22.2 µM (inactive)	12.4 µM (inactive) and 18.3 µM (inactive)		19.1 µM (inactive) and 14.4 µM (inactive)	10.9 µM (inactive) and 17.6 µM (inactive)	14.5 µM (inactive)			16.7 µM (inactive) and 21.3 µM (inactive)	17.3 µM (inactive) and 20.6 µM (inactive)		14 µM (inactive) and 26.1 µM (inactive)	14.3 µM (inactive) and 17.2 µM (inactive)		14.3 µM (inactive) and 17.9 µM (inactive)	16.6 µM (inactive) and 20.6 µM (inactive)	24 µM (inactive) and 18.8 µM (inactive)	27.4 µM (inactive) and 38.5 µM (inactive)
[O-][N+]1=[N+]([O-])[C@@H](c2ccccc2)[C@H]1c1ccccc1	19.5 µM (inactive)	5.83 µM (inactive)	19.3 µM (inactive)	16.3 µM (inactive)	18.7 µM (inactive)	22.4 µM (inactive)	15.3 µM (inactive)	15.8 µM (inactive)	20.2 µM (inactive)	17.7 µM (inactive)	22.4 µM (inactive)	25 µM (inactive)	24.9 µM (inactive)	16.7 µM (inactive)	18 µM (inactive)	18.4 µM (inactive)	18.6 µM (inactive)	17.5 µM (inactive)		32.3 µM (inactive)
COc1ccc(CNc2nc(NCc3ccc(OC)cc3)nc(NC3CCCC3)n2)cc1	5.26 µM (inactive)	4.02 µM (inactive)	3.05 µM (inactive)	3.44 µM (inactive)	3.07 µM (inactive)	0.28 µM (active)	5.78 µM (inactive)	2.91 µM (inactive)	3.54 µM (inactive)	8.53 µM (inactive)	3.6 µM (inactive)	> 25.4 µM (inactive)	7.18 µM (inactive)	3.76 µM (inactive)	> 19.8 µM (inactive)	2.67 µM (inactive)	4.5 µM (inactive)			5.28 µM (inactive)
Oc1ccc(O)c(Cc2ccccc2)c1	37.2 µM (inactive)		17.4 µM (inactive)	6.27 µM (inactive)	27.9 µM (inactive)	19.1 µM (inactive)	18.6 µM (inactive)	23.5 µM (inactive)	19 µM (inactive)	26.4 µM (inactive)	20.7 µM (inactive)	14.2 µM (inactive)	12.5 µM (inactive)	17.3 µM (inactive)	18.4 µM (inactive)	2.32 µM (inactive)	20.1 µM (inactive)	20.2 µM (inactive)		32.8 µM (inactive)
OC[C@@H](O)[C@H]1NC[C@@H](O)[C@H]1O	> 100 µM (inactive)	> 100 µM (inactive)	> 100 µM (inactive)	> 100 µM (inactive)	> 100 µM (inactive)	> 100 µM (inactive)		> 100 µM (inactive)		> 100 µM (inactive)	> 100 µM (inactive)	> 100 µM (inactive)	> 100 µM (inactive)	> 100 µM (inactive)	> 100 µM (inactive)	> 100 µM (inactive)	> 100 µM (inactive)	> 100 µM (inactive)	> 100 µM (inactive)	> 100 µM (inactive)
Cc1cc2[nH]c3c(C#N)c(-c4ccccc4)c(/C=N/c4ccc(Cl)cc4)c(=O)n3c2cc1C	> 100 µM (inactive)	> 100 µM (inactive)	> 100 µM (inactive)		> 100 µM (inactive)	> 100 µM (inactive)	> 100 µM (inactive)	> 100 µM (inactive)	> 100 µM (inactive)	> 100 µM (inactive)	> 100 µM (inactive)	> 100 µM (inactive)	> 100 µM (inactive)	> 100 µM (inactive)	> 100 µM (inactive)		> 100 µM (inactive)		> 100 µM (inactive)	> 100 µM (inactive)
O=C(Cc1ccccc1)NN1C(=O)/C(=C\c2cccc(O)c2)S/C1=N\c1ccccc1	> 100 µM (inactive)		> 100 µM (inactive)	> 100 µM (inactive)	> 100 µM (inactive)	> 100 µM (inactive)		> 100 µM (inactive)	45.8 µM (inactive)		> 100 µM (inactive)	> 100 µM (inactive)	> 100 µM (inactive)	> 100 µM (inactive)	> 100 µM (inactive)		> 100 µM (inactive)	> 100 µM (inactive)		> 100 µM (inactive)
